For orientation: IC50 means the concentration at which inhibition is half-maximal. Read a high IC50 as lower potency.

The target in one assay is T1, human FXa (Homo sapiens, UniProt P00742).
T1 construct: purchased Enzyme Research Laboratories, Inc
T1 sequence (P00742 235-488 limits assumed): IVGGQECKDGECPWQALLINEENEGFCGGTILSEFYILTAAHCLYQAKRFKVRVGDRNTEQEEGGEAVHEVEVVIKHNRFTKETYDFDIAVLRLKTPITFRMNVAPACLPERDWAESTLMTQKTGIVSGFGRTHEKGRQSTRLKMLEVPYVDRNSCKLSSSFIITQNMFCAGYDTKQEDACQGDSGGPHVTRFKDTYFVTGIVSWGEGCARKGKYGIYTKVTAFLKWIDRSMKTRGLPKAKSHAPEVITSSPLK
T1 sequence (P00742 41-179 partner limits assumed): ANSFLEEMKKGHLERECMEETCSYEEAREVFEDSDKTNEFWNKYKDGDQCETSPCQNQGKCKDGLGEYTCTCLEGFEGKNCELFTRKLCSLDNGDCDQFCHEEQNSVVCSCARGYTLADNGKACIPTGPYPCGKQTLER
In words: Measurement of the human FXa inhibitory action. The assay is classed as biochemical. The following applies: human FXa 0.019 U/ml, substrate S-2222 0.4 mM, 37° C., Tris-HCl buffer pH 7.5. Here is the method:
In vitro FXa inhibitory activity may be measured according to the method of Kettner et al. (Journal of Biological Chemistry, vol. 265, pages 18289 to 18297, 1990). To be more specific, human FXa (product of Enzyme Research Laboratories, Inc., 0.019 U/ml) is mixed with the specimens (of the compound of the present invention) prepared by diluting the compound of the invention with dimethylsulfoxide (DMSO) to different concentrations and synthetic substrate S-2222 (Chromogenix AB, 0.4 mM), and the mixtures are incubated at 37° C. in Tris-hydrochloric acid buffer (pH 7.5). The FXa inhibitory activity of the specimen is calculated by continuously observing the absorbance at 405 nm, and comparing the initial speed with the initial speed in the absence of the specimen.
It should be noted that the FXa inhibitory activity of the specimen is generally indicated as IC50.
For `CC(=O)NCC12CN(S(=O)(=O)c3cc4cc(Cl)ccc4[nH]3)CC(=O)N1CC1(CCN(C(C)=O)CC1)N2C` (single isomer, unassigned) [Example 21, optically active 1′-acetyl-8a-(acetylaminomethyl)-7-[(5-chloro-1H-indol-2-yl)sulfonyl]tetrahydro-1-methyl-spiro[imidazo[1,2-a]pyrazine-2(3H),4′-piperidin]-5(1H)-one], the IC50 stood at 5.6 nM.

As to `CC(=O)N1CCC2(CC1)CN1C(=O)CN(S(=O)(=O)c3cc4cc(Cl)ccc4[nH]3)CC1(CN(C)C)O2` (single isomer, unassigned) [Example 60, optically active 1′-acetyl-7-[(5-chloro-1H-indol-2-yl)sulfonyl]tetrahydro-8a-(N,N-dimethylaminomethyl)-spiro[5H-oxazolo[3,2-a]pyrazine-2(3H),4′-piperidin]-5-one], the IC50 turned out to be 4.5 nM.

With `CCC(=O)N1CCC2(CC1)CN1C(=O)CN(S(=O)(=O)c3cc4cc(Cl)ccc4[nH]3)CC1(CN(C)CC(=O)O)O2` (single isomer, unassigned) [Example 66, optically active N-[[7-[(5-chloro-1H-indol-2-yl)sulfonyl]tetrahydro-5-oxo-1′-propanoyl-spiro[5H-oxazolo[3,2-a]pyrazine-2(3H),4′-piperidin]-8a-yl]methyl]-N-methylglycine], 1.6 nM corresponded to half-maximal inhibition (IC50).

As for `COCC12CN(S(=O)(=O)c3cc4cc(Cl)ccc4[nH]3)CC(=O)N1CC1(CCN(C(C)=O)CC1)N2C` (single isomer, unassigned; (-)) [Example 1, (−)-1′-acetyl-7-[(5-chloro-1H-indol-2-yl)sulfonyl]tetrahydro-8a-(methoxymethyl)-1-methyl-spiro[imidazo[1,2-a]pyrazine-2(3H),4′-piperidin]-5(1H)-one], the IC50 is 5.7 nM.

Turning to `CCC(=O)N1CCC2(CC1)CN1C(=O)CN(S(=O)(=O)c3cc4cc(Cl)ccc4[nH]3)CC1(COC)N2C` (single isomer, unassigned; (-)) [Example 2, (−)-7-[(5-chloro-1H-indol-2-yl)sulfonyl]tetrahydro-8a-(methoxymethyl)-1-methyl-1′-propanoyl-spiro[imidazo[1,2-a]pyrazine-2(3H),4′-piperidin]-5(1H)-one], the IC50 was determined as 1.8 nM.

`COCC12CN(S(=O)(=O)c3cc4cc(Cl)ccc4[nH]3)CC(=O)N1CC1(CCN(C(=O)C3CCC3)CC1)N2C` (single isomer, unassigned; (-)) [Example 3, (−)-7-[(5-chloro-1H-indol-2-yl)sulfonyl]-1′-cyclobutanecarbonyl-tetrahydro-8a-(methoxymethyl)-1-methyl-spiro[imidazo[1,2-a]pyrazine-2(3H),4′-piperidin]-5(1H)-one] had an IC50 of 1.3 nM.

The molecule `C#CC(=O)N1CCC2(CC1)CN1C(=O)CN(S(=O)(=O)c3cc4cc(Cl)ccc4[nH]3)CC1(COC)N2C` (single isomer, unassigned; (-)) [Example 13, (−)-7-[(5-chloro-1H-indol-2-yl)sulfonyl]tetrahydro-8a-(methoxymethyl)-1-methyl-1′-propinoyl-spiro[imidazo[1,2-a]pyrazine-2(3H),4′-piperidin]-5(1H)-one] showed an IC50 of 2.6 nM.

Take `C#CC(=O)N1CCC2(CC1)CN1C(=O)CN(S(=O)(=O)c3cc4ccc(Cl)cc4s3)CC1(COC)N2C` (single isomer, unassigned; (-)) [Example 17, (−)-7-[(6-chloro-benzo[b]thiophen-2-yl)sulfonyl]tetrahydro-8a-(methoxymethyl)-1-methyl-1′-propinoyl-spiro[imidazo[1,2-a]pyrazine-2(3H),4′-piperidin]-5(1H)-one]: the half-inhibitory concentration (IC50) turned out to be 6.5 nM.

`CCC(=O)N1CCC2(CC1)CN1C(=O)CN(S(=O)(=O)c3cc4cc(Cl)ccc4[nH]3)CC1(COC)N2` (single isomer, unassigned; (-)) [Example 26, (−)-7-[(5-chloro-1H-indol-2-yl)sulfonyl]tetrahydro-8a-(methoxymethyl)-1′-propanoyl-spiro[imidazo[1,2-a]pyrazine-2(3H),4′-piperidin]-5(1H)-one]: the IC50 turned out to be 5.7 nM.

With `COCC12CN(S(=O)(=O)c3cc4cc(Cl)ccc4[nH]3)CC(=O)N1CC1(CCN(C(C)=O)CC1)O2` (single isomer, unassigned; (-)) [Example 34, (−)-1′-acetyl-7-[(5-chloro-1H-indol-2-yl)sulfonyl]tetrahydro-8a-(methoxymethyl)-spiro[5H-oxazolo[3,2-a]pyrazine-2(3H),4′-piperidin]-5-one], the IC50 turned out to be 8.2 nM.

The test system of another assay is human plasma. The experiment in a line: Measurement of intrinsic coagulation time (APTT) in vitro. It counts as biochemical. The following applies: APTT reagent, 37° C., calcium chloride 25 mM. The procedure: Activated partial thromboplastin time (APTT) is measured in the presence of the test compounds of the present invention diluted at various concentrations. To be more specific, each of the test compounds diluted with DMSO at various concentrations is mixed with human plasma and APTT reagent. The mixture is incubated at 37° C. for 2 minutes; calcium chloride (25 mM) is added to the mixture; and the coagulation time is thereafter measured. It should be noted that the anticoagulant activity of the test compound is described in terms of the concentration required to double the coagulation time for the case where no test compound is added.
As for `CC(=O)NCC12CN(S(=O)(=O)c3cc4cc(Cl)ccc4[nH]3)CC(=O)N1CC1(CCN(C(C)=O)CC1)N2C` (single isomer, unassigned) [Example 21, optically active 1′-acetyl-8a-(acetylaminomethyl)-7-[(5-chloro-1H-indol-2-yl)sulfonyl]tetrahydro-1-methyl-spiro[imidazo[1,2-a]pyrazine-2(3H),4′-piperidin]-5(1H)-one], the “Concentration when APTT was doubled” value turned out to be 0.36 µM.

Regarding `CCOC(=O)CN(C)CC12CN(S(=O)(=O)c3cc4cc(Cl)ccc4[nH]3)C[C@@H](O)N1CC1(CCN(C(=O)CC)CC1)O2` (single isomer, unassigned) [Example 64, optically active 7-[(5-chloro-1H-indol-2-yl)sulfonyl]tetrahydro-8a-[(N-ethoxycarboxymethyl)-N-methylaminomethyl]-1′-propanoyl-spiro[5H-oxazolo[3,2-a]pyrazine-2(3H),4′-piperidin]-5-one], the “Concentration when APTT was doubled” value amounted to 0.89 µM.

For the molecule `C=CC(=O)N1CCC2(CC1)CN1C(=O)CN(S(=O)(=O)c3cc4cc(Cl)ccc4[nH]3)CC1(COC)N2C` (single isomer, unassigned; (-)) [Example 4, (−)-7-[(5-chloro-1H-indol-2-yl)sulfonyl]tetrahydro-8a-(methoxymethyl)-1-methyl-1′-propenoyl-spiro[imidazo[1,2-a]pyrazine-2(3H),4′-piperidin]-5(1H)-one], the “Concentration when APTT was doubled” value is 0.5 µM.

Turning to `COCC12CN(S(=O)(=O)/C=C/c3ccc(Cl)s3)CC(=O)N1CC1(CCN(C(C)=O)CC1)N2C` (single isomer, unassigned; (-)) [Example 14, (−)-1′-acetyl-7-[[(1E)-2-(5-chloro-2-thienyl)ethenyl]sulfonyl]tetrahydro-8a-(methoxymethyl)-1-methyl-spiro[imidazo[1,2-a]pyrazine-2(3H),4′-piperidin]-5(1H)-one], the “Concentration when APTT was doubled” value amounted to 0.64 µM.

Regarding `C#CC(=O)N1CCC2(CC1)CN1C(=O)CN(S(=O)(=O)c3cc4ccc(Cl)cc4s3)CC1(COC)N2C` (single isomer, unassigned; (-)) [Example 17, (−)-7-[(6-chloro-benzo[b]thiophen-2-yl)sulfonyl]tetrahydro-8a-(methoxymethyl)-1-methyl-1′-propinoyl-spiro[imidazo[1,2-a]pyrazine-2(3H),4′-piperidin]-5(1H)-one], the “Concentration when APTT was doubled” value came out at 0.87 µM.

For `CCN1C2(CCN(C(C)=O)CC2)CN2C(=O)CN(S(=O)(=O)c3cc4cc(Cl)ccc4[nH]3)CC21COC` (single isomer, unassigned; (-)) [Example 23, (−)-1′-acetyl-7-[(5-chloro-1H-indol-2-yl)sulfonyl]tetrahydro-1-ethyl-8a-(methoxymethyl)-spiro[imidazo[1,2-a]pyrazine-2(3H),4′-piperidin]-5(1H)-one], the “Concentration when APTT was doubled” value was found to be 0.19 µM.

As for `CCC(=O)N1CCC2(CC1)CN1C(=O)CN(S(=O)(=O)c3cc4cc(Cl)ccc4[nH]3)CC1(COC)N2` (single isomer, unassigned; (-)) [Example 26, (−)-7-[(5-chloro-1H-indol-2-yl)sulfonyl]tetrahydro-8a-(methoxymethyl)-1′-propanoyl-spiro[imidazo[1,2-a]pyrazine-2(3H),4′-piperidin]-5(1H)-one], the “Concentration when APTT was doubled” value was 0.44 µM.

With `COCC12CN(S(=O)(=O)/C=C/c3ccc(Cl)s3)CC(=O)N1CC1(CCN(C(C)=O)CC1)O2` (single isomer, unassigned; (-)) [Example 36, (−)-1′-acetyl-7-[[(1E)-2-(5-chloro-2-thienyl)ethenyl]sulfonyl]tetrahydro-8a-(methoxymethyl)-spiro[5H-oxazolo[3,2-a]pyrazine-2(3H),4′-piperidin]-5-one], the “Concentration when APTT was doubled” value was determined as 0.83 µM.

Regarding `O=C(C1CC1)N1CCC2(CC1)CN1C(=O)CN(S(=O)(=O)c3cc4cc(Cl)ccc4[nH]3)CC1(CO)O2` (single isomer, unassigned; (-)) [Example 52, (−)-7-[(5-chloro-1H-indol-2-yl)sulfonyl]tetrahydro-1′-cyclopropanoyl-8a-(hydroxymethyl)-spiro[5H-oxazolo[3,2-a]pyrazine-2(3H),4′-piperidin]-5-one], the “Concentration when APTT was doubled” value worked out at 0.57 µM.

Consider `COC(=O)COCC12CN(S(=O)(=O)c3cc4cc(Cl)ccc4[nH]3)CC(=O)N1CC1(CCN(C(C)=O)CC1)O2` (single isomer, unassigned; (-)) [Example 54, (−)-1′-acetyl-7-[(5-chloro-1H-indol-2-yl)sulfonyl]tetrahydro-8a-(methoxycarbonylmethoxymethyl)-spiro[5H-oxazolo[3,2-a]pyrazine-2(3H),4′-piperidin]-5-one], for which the “Concentration when APTT was doubled” value came to 0.4 µM.

For `CC(=O)N1CCC2(CC1)CN1C(=O)CN(S(=O)(=O)c3cc4cc(Cl)ccc4[nH]3)CC1(COc1ncccn1)O2` (single isomer, unassigned; (-)) [Example 56, (−)-1′-acetyl-7-[(5-chloro-1H-indol-2-yl)sulfonyl]tetrahydro-8a-(2-pyrimidyloxymethyl)-spiro[5H-oxazolo[3,2-a]pyrazine-2(3H),4′-piperidin]-5-one], the “Concentration when APTT was doubled” value came out at 0.5 µM.

(Values after US20090076015A1, “Tricyclic Spiro Compound Comprising Acyl Group Bound to Nitrogen Atom in the Ring” (priority 2005, published 2009).)
